{"source": "paper PMC6934184", "about": "“Selective DNA-PKcs inhibition extends the therapeutic index of localized radiotherapy and chemotherapy” (The Journal of Clinical Investigation, 2019)", "biological_target": "T1, ERBB4 (HER4) (Homo sapiens, UniProt Q15303)", "T1 construct": "purchased Thermo Fisher Scientific (Life Technologies) SelectScreen", "T1 sequence (Q15303 26-1308)": "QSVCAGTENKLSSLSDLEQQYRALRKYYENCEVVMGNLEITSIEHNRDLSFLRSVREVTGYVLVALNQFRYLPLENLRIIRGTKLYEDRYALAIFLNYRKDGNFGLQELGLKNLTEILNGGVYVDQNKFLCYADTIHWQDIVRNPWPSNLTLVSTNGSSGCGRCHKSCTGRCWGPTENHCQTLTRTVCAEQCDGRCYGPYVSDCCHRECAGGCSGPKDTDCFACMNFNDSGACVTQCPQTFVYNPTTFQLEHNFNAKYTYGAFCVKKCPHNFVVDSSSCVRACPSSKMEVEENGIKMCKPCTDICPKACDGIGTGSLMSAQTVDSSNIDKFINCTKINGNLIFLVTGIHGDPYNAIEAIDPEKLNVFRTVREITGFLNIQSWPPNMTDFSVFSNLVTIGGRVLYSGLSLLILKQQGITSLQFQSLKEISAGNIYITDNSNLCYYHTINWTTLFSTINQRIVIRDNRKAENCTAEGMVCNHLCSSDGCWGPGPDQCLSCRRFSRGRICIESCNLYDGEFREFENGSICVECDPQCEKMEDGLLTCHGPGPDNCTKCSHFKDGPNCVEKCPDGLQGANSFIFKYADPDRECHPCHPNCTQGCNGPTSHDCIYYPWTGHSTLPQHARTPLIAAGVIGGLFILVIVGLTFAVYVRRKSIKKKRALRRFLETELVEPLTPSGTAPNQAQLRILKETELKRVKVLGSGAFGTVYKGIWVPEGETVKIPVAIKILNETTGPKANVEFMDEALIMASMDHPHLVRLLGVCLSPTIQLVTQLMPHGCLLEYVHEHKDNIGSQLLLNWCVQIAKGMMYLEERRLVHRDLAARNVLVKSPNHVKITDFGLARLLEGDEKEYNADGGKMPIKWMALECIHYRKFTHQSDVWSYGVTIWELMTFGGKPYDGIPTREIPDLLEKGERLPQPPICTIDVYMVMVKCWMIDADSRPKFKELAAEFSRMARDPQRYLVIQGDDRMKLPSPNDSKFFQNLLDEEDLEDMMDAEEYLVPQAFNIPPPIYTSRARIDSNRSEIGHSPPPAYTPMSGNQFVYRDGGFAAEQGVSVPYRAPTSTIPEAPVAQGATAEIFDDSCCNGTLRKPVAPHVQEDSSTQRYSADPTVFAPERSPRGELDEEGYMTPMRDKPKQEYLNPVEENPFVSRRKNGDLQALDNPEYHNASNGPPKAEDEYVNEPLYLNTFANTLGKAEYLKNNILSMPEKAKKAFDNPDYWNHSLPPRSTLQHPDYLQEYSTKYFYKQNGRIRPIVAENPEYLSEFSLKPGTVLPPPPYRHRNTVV", "assay": "SelectScreen Z'LYTE", "format": "biochemical", "in_short": "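SelectScreen broad panel; activity (Z'LYTE, Adapta) plus binding formats. ATP: Km app for CSF1R Z'LYTE; 10 for CAMK1 Adapta. Readout = % per kinase.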", "data": [{"smiles": "CN(C(=O)CN1CCOCC1)c1ccc2sc3c(-c4cccc5c(=O)cc(N6CC7CCC(C6)O7)oc45)cccc3c2c1", "note": "[NU5455]", "values": [{"measurement": "inhibition at 1 µM", "value": -2.8, "unit": "%"}]}]}
